Experimental data as given in ChEMBL document CHEMBL1151653, “13-Deoxycarminomycin, a new biosynthetic anthracycline” (J Nat Prod, 1985).
In brackets after ≈: the same amount, converted by molar mass.

Key:
Bacillus subtilis = experiment: Antimicrobial activity against Bacillus subtilis ATCC 6633 by tube dilution method; format: functional
Staphylococcus aureus [1] = experiment: Antimicrobial activity against Staphylococcus aureus 209 P by tube dilution method; format: functional
Staphylococcus aureus [2] = experiment: Antimicrobial activity against drug resistant Staphylococcus aureus isolate 153 producing beta lactamase by tube dilution method; format: functional
Escherichia coli = experiment: Antimicrobial activity against Escherichia coli B ATCC 11303 by tube dilution method; format: functional
Micrococcus luteus = experiment: Antimicrobial activity against Sarcina lutea ATCC 9341 by tube dilution method; format: functional
HeLa [3] = experiment: Cytotoxicity against human HeLa cells assessed as colony formation at 12.5 ng/ml relative to control; format: functional
HeLa [4] = experiment: Cytotoxicity against human HeLa cells assessed as colony formation at 6.2 ng/ml relative to control; format: functional
HeLa [5] = experiment: Cytotoxicity against human HeLa cells assessed as colony formation at 3.1 ng/ml relative to control; format: functional
HeLa [6] = experiment: Cytotoxicity against human HeLa cells assessed as colony formation at 1.5 ng/ml relative to control; format: functional
HeLa [7] = experiment: Cytotoxicity against human HeLa cells assessed as inhibition of colony formation relative to control; format: functional; settings: read-out: ID50 (the source's name)
P388 [8] = experiment: Cytotoxicity against mouse P388 cells; format: functional; settings: read-out: ID50 (the source's name)
P388 [9] = experiment: Cytotoxicity against doxorubicin resistant mouse P388 cells; format: functional; settings: read-out: ID50 (the source's name)
P388 [10] = experiment: Antitumor activity against mouse P388 cells xenografted in mouse assessed as median survival time at 0.4 mg/kg, ip relative to control; format: functional; settings: route intraperitoneal
P388 [11] = experiment: Antitumor activity against mouse P388 cells xenografted in mouse assessed as median survival time at 0.6 mg/kg, ip relative to control; format: functional; settings: route intraperitoneal
P388 [12] = experiment: Antitumor activity against mouse P388 cells xenografted in mouse assessed as median survival time at 1 mg/kg, ip relative to control; format: functional; settings: route intraperitoneal
P388 [13] = experiment: Antitumor activity against mouse P388 cells xenografted in mouse assessed as median survival time at 1.5 mg/kg, ip relative to control; format: functional; settings: route intraperitoneal
Mus musculus [14] = experiment: Toxicity in mouse P388 cells xenografted mouse assessed as induction of death at 0.4 mg/kg, ip; format: organism-based; set-up: dose 0.4 mg/kg, route intraperitoneal; settings: in vivo
Mus musculus [15] = experiment: Toxicity in mouse P388 cells xenografted mouse assessed as induction of death at 0.6 mg/kg, ip; format: organism-based; set-up: dose 0.6 mg/kg, route intraperitoneal; settings: in vivo
Mus musculus [16] = experiment: Toxicity in mouse P388 cells xenografted mouse assessed as induction of death at 1.5 mg/kg, ip; format: organism-based; set-up: dose 1.5 mg/kg, route intraperitoneal; settings: in vivo
HeLa [17] = experiment: Cytotoxicity against human HeLa cells assessed as inhibition of colony formation at 25 ng/ml relative to control; format: functional; set-up: scale not given: the % may be the effect or the level left
P388 [18] = experiment: Antitumor activity against mouse P388 cells xenografted in mouse assessed as median survival time at 2.9 mg/kg, ip relative to control; format: functional; settings: route intraperitoneal
P388 [19] = experiment: Antitumor activity against mouse P388 cells xenografted in mouse assessed as median survival time at 4.4 mg/kg, ip relative to control; format: functional; settings: route intraperitoneal
P388 [20] = experiment: Antitumor activity against mouse P388 cells xenografted in mouse assessed as median survival time at 6.6 mg/kg, ip relative to control; format: functional; settings: route intraperitoneal
Mus musculus [21] = experiment: Toxicity in mouse P388 cells xenografted mouse assessed as induction of death at 2.9 mg/kg, ip; format: organism-based; set-up: dose 2.9 mg/kg, route intraperitoneal; settings: in vivo
Mus musculus [22] = experiment: Toxicity in mouse P388 cells xenografted mouse assessed as induction of death at 4.4 mg/kg, ip; format: organism-based; set-up: dose 4.4 mg/kg, route intraperitoneal; settings: in vivo

| Compound | Activity (HeLa [3]) [%] | Activity (HeLa [4]) [%] | Activity (HeLa [5]) [%] | Activity (HeLa [6]) [%] | IC50 (HeLa [7]) [µg/mL] | IC50 (P388 [8]) [µg/mL] | IC50 (P388 [9]) [µg/mL] | further results |
| --- | --- | --- | --- | --- | --- | --- | --- | --- |
| CC[C@]1(O)Cc2c(O)c3c(c(O)c2[C@@H](O[C@H]2C[C@H](N)[C@H](O)[C@H](C)O2)C1)C(=O)c1c(O)cccc1C3=O | 36 | 55 | 90 | 126 | 0.0062 (≈ 0.0124 µM) | 0.0015 (≈ 0.003 µM) | 0.004 (≈ 0.00801 µM) | MIC (Bacillus subtilis): 6.25 µg/mL (≈ 12.5 µM); MIC (Staphylococcus aureus [1]): 12.5 µg/mL (≈ 25 µM); MIC (Staphylococcus aureus [2]): 25 µg/mL (≈ 50 µM); MIC (Escherichia coli): 3.12 µg/mL (≈ 6.25 µM); MIC (Micrococcus luteus): 1.56 µg/mL (≈ 3.12 µM); Activity (P388 [10]): 136%; Activity (P388 [11]): 150%; Activity (P388 [12]): 163%; Activity (P388 [13]): 109%; Activity (Mus musculus [14]): Non-toxic; Activity (Mus musculus [15]): Non-toxic; Activity (Mus musculus [16]): Toxic |
| COc1cccc2c1C(=O)c1c(O)c3c(c(O)c1C2=O)C[C@@](O)(C(C)=O)C[C@@H]3O[C@H]1C[C@H](N)[C@H](O)[C@H](C)O1 [DAUNORUBICIN] | 48 | 123 |  |  | 0.0125 (≈ 0.0237 µM) | 0.0095 (≈ 0.018 µM) | 0.75 (≈ 1.42 µM) | Activity (HeLa [17]): 13%; T/C (P388 [18]): 177%; T/C (P388 [19]): 190%; T/C (P388 [20]): 168%; Activity (Mus musculus [21]): Non-toxic; Activity (Mus musculus [22]): Non-toxic |
| CC(=O)[C@]1(O)Cc2c(O)c3c(c(O)c2[C@@H](O[C@H]2C[C@H](N)[C@H](O)[C@H](C)O2)C1)C(=O)c1c(O)cccc1C3=O [CARUBICIN] | 0 | 3 | 33 | 120 | 0.0031 (≈ 0.00604 µM) | 0.007 (≈ 0.0136 µM) | 0.004 (≈ 0.00779 µM) |  |
